# Experimental data published in US20150190404A1, “TREATING SEIZURES USING ICE INHIBITORS” (Vertex Pharmaceuticals Incorporated, priority 2004, published 2015).
# Where “and” joins values, the source holds several entries; their conditions need not be identical. Equal values may be shown once. Entries after “also recorded” stand apart in the source; their conditions may differ.
# Assays:
# IL-1β = assay: Western blot of IL-1β in hippocampal homogenates after kainate seizures; assay type: in vivo, rats; conditions: 25 μg/4 μL icv 45 and 10 min before kainic acid 40 ng, 90 min after seizures
# Excerpt: See Example 1 and Example 6.
# rheumatoid arthritis = conditions: Pavelka et al. 2002, 285 patient PHII trial; cited from earlier work
# [1] = test system: kainic acid-induced seizures; assay: Kainic acid-induced EEG seizures, compound 1 given intraperitoneally (Example 2); assay type: in vivo, rats
# Description: An experimental model of seizures in rats was induced by unilateral microinjection of kainic acid (40 ng in 0.5 μL) in the dorsal hippocampus of freely-moving rats using chronically-implanted cannulae. […] EEG seizures were recorded using chronically-implanted hippocampal electrodes. […] See, Example 4, where a higher dose of compound 2 produced statistically significant effects.
# seizures = assay: Rodent seizure model, general statements on anti-convulsant activity; conditions: in vivo
# Excerpt: The examples provided herein involve an rodent seizure model that is recognized as a good model of human epilepsy and convulsions disorders.
# [2] = test system: kainic acid-induced seizures; assay: Kainic acid-induced EEG seizures, compound given intracerebroventricularly (Example 1); assay type: in vivo, male adult Sprague-Dawley rats; conditions: individual rats, 25 μg/4 μl icv
# Description: An experimental model of seizures in male adult Sprague-Dawley rats was induced by unilateral microinjection of kainic acid (40 ng in 0.5 μl) in the dorsal hippocampus of freely-moving rats using chronically-implanted cannulae and electrodes. Briefly, animals were deeply anesthetized using Equithesin (1% […] and 4% chloral hydrate; 3 ml/kg, i.p.). Bipolar nichrome wire insulated electrodes (60 μm) were implanted bilaterally into the dentate gyrus of the dorsal hippocampus (septal pole), and a guide cannula (22 gauge) was unilaterally positioned on top of the dura and glued to one of the depth electrodes for the intrahippocampal injection of kainic acid. The coordinates from bregma for implantation of the hippocampal electrodes were (in mm: nose bar -2.5, AP -3.5, L ±2.4 and 3 below dura mater). An additional guide cannula was unilaterally positioned on top of the dura mater for intracerebroventricular injection of compounds (in mm, nose bar -2.5; AP -1; L +1.5). A ground lead was positioned over the nasal sinus and two screw electrodes were placed bilaterally over the parietal cortex. The electrodes were connected to a multipin socket (March Electronics, NY) and, together with the injection cannula, were secured to the skull by acrylic dental cement.
# [3] = test system: kainic acid-induced seizures; assay: Effect of ibuprofen on kainic acid-induced EEG seizures (Example 5); assay type: in vivo, Rats; conditions: for Status Epilepticus (time in status epilepticus) / Onset / No. of Seizures / Time in Seizures: 50 mg/kg
# Description: EEG seizures were induced in adult male Sprague-Dawley rats by intrahippocampal injection of 40 ng kainic acid (KA) using a chronically-implanted cannula. EEG seizures were recorded using chronically-implanted hippocampal electrodes. Ictal and interictal epileptic activity was quantified quantified by EEG analysis based on the following parameters: 1) the time to onset of the first ictal episode, 2) the number of ictal episodes during the 3 hours of recording, and 3) the time spent in ictal activity reckoned by adding together the duration of each ictal event. Compound 2 or its vehicle were injected intraperitoneally for 3 consecutive days (50-200 mg/kg). The 4th day, rats received compound 2, 45 and 10 min before the intrahippocampal injection of 40 ng in 0.5 μl kainic acid.
# The effect of ibuprofen on seizures was also examined using the methods described in Example 4. Rats received ibuprofen (50 mg/kg, i.p.) 60 min. before unilateral intrahippocampal injection of […] in 0.5 μl kainic acid. Controls (vehicle) received saline *p<0.05 vs. vehicle by Student's t-test. Seizures were analyzed and quantified by EEG. Status epilepticus represents continuous seizure activity lasting more than 30 min. consecutively.
# [4] = individual rats, 30 mg/kg intraperitoneally, 45 and 10 min before 40 ng kainic acid, 30 mg/kg
# [5] = individual rats, i.p. 60 min. before kainic acid
smiles,measurement,setting,value
CCO[C@@H]1OC(=O)C[C@@H]1NC(=O)[C@@H]1CCCN2C(=O)CC[C@H](NC(=O)c3nccc4ccccc34)C(=O)N12 [Compound 1],mature active 17 kD IL-1β in hippocampus,IL-1β,blocked the seizure-induced production; also recorded: reduced the formation mature active 17 kD IL-1β
same,anti-inflammatory activity in rheumatoid arthritis patients,rheumatoid arthritis,anti-inflammatory activity
same,reduction of the total time spent in ictal activity,"[1]; 30 mg/kg intraperitoneally, vs vehicle, did not reach statistical significance",−30%
same,No. of ictal episodes,"[1]; Mean ± SE, 30 mg/kg intraperitoneally, vehicle 20.8 ± 2.5",20.5 ± 2.3
same,Time in ictal activity,"[1]; Mean ± SE, 30 mg/kg intraperitoneally, vehicle 36.6 ± 6.9",25.6 ± 2.8 min
same,ONSET (time to onset of the first ictal episode),[1]; [4],10.5 min and 12 min and 14 min and 9 min (2×) and 23 min and 13 min and 11 min
same,Time in ictal activity,[1]; [4],9 min and 32 min and 27 min and 20 min and 34 min and 25 min and 30 min and 28 min
same,No. of ictal episodes,"[1]; individual rats, 30 mg/kg intraperitoneally, 45 and 10 min before 40 ng kainic acid, 3 hours of recording, 30 mg/kg",8 and 23 (2×) and 29 and 17 and 25 (2×) and 16
same,seizure inhibition / anti-convulsant activity,[1]; intraperitoneal (peripheral) route,inhibit seizures; also recorded: have anti-convulsant activity when administered peripherally
same,anti-convulsant activity in the rodent seizure model,seizures,as effective as high doses of either phenytoin or carbamazepine
same,Time in ictal activity,[2]; 45 and 10 min before 40 ng kainic acid,36.0 min (2×) and 30.0 min and 42.0 min (2×) and 34.0 min and 41.0 min
same,ONSET (time to onset of the first ictal episode),[2]; 45 and 10 min before 40 ng kainic acid in left hippocampus,15.0 min and 20.0 min and 14.0 min (2×) and 18.0 min and 13.6 min and 9.0 min and 12.0 min
same,No. of ictal episodes,"[2]; 45 and 10 min before 40 ng kainic acid, 3 hours of recording",28 and 29 and 30 (3×) and 37 and 31 and 33
CC(C)Cc1ccc(C(C)C(=O)O)cc1 (stereo not shown) [Ibuprofen],Status Epilepticus (time in status epilepticus),"[3]; Mean ± SE of (5) rats, i.p., vehicle —",74.4 ± 2.6
same,Status Epilepticus (time in status epilepticus),"[3]; Mean ± SE of (5) rats, i.p., vehicle —, listed as ibuprofen",increased the time in status epilepticus
same,Onset,"[3]; Mean ± SE, i.p., vehicle 13.2 ± 2.1",13.0 ± 1.7 min
same,No. of Seizures,"[3]; Mean ± SE, i.p., vehicle 16.6 ± 1.0",11.7 ± 1.0
same,Time in Seizures,"[3]; Mean ± SE, i.p., vehicle 21.1 ± 1.1",10.8 ± 0.6 min
same,Onset,"[3]; individual rats, i.p. 60 min. before intrahippocampal 40 μg in 0.5 μl kainic acid",14.4 min and 7.9 min and 11.0 min and 12.3 min and 13.3 min and 21.4 min and 10.0 min
same,No. of Seizures,[3]; [5],13 (2×) and 10 (2×) and 12 and 16 and 8
same,Time in Seizures,[3]; [5],13.0 min and 8.4 min and 11.0 min and 12.5 min and 11.2 min and 9.8 min and 9.4 min
same,Status Epilepticus (time in status epilepticus),"[3]; individual rats, i.p., continuous seizure activity lasting more than 30 min., all vehicle rats —",75 and 66.6 and 80 (2×) and 70
same,seizure activity compared to vehicle,[3]; intraperitoneal route,increased the seizure activity compared to vehicle
NC(=O)N1c2ccccc2C=Cc2ccccc21 [carbamazepine],anti-convulsant activity in the rodent seizure model,seizures,exhibit anti-convulsant activity
O=C1NC(=O)C(c2ccccc2)(c2ccccc2)N1 [phenytoin],anti-convulsant activity in the rodent seizure model,seizures,exhibit anti-convulsant activity
